Activity and Blood volume data for 1 compound are collected here from ChEMBL document CHEMBL1134182, “Modified synthesis and antiangiogenic activity of linomide” (2001).

In test [1] the test system is Mus musculus. Put plainly: In vivo effect of compound on VEGF-induced angiogenesis in blood vessels of mice. The format is functional.
Test [2] relates to Mus musculus. Put plainly: In vivo effect of compound on VEGF-induced angiogenesis in blood volume of mice. It counts as functional.

`CN(C(=O)c1c(O)c2ccccc2n(C)c1=O)c1ccccc1` [ROQUINIMEX] had an Activity in the test on Mus musculus [1] below 3.48%. For the same compound, the Blood volume with Mus musculus [2] is below 0.33 HB g ml-1.
